Data: ChEMBL document CHEMBL3046559, “Sterile oat (Avena sterilis L.) cross-resistance profile to ACCase-inhibiting herbicides in Greece” (2012)

What was measured:
Format in all cases: functional
[1] = system: Avena sterilis; assay: Herbicidal activity against Avena sterilis accession P02 assessed as induction of weed mortality
[2] = system: Avena sterilis; assay: Herbicidal activity against Avena sterilis accession P20 assessed as weed survival at 4 times field recommended herbicide dose
[3] = system: Avena sterilis; assay: Herbicidal activity against Avena sterilis accession P12 assessed as weed survival at 4 times field recommended herbicide dose
[4] = system: Avena sterilis; assay: Herbicidal activity against Avena sterilis accession P10S assessed as induction of weed mortality
[5] = system: Avena sterilis; assay: Herbicidal activity against Avena sterilis accession P08 assessed as induction of weed mortality
[6] = system: Avena sterilis; assay: Herbicidal activity against Avena sterilis accession P18 assessed as weed survival at 4 times field recommended herbicide dose
[7] = system: Avena sterilis; assay: Herbicidal activity against Avena sterilis accession P12 assessed as weed survival at 1 times field recommended herbicide dose
[8] = system: Avena sterilis; assay: Herbicidal activity against Avena sterilis accession P13S assessed as weed survival at 1/32 times field recommended herbicide dose
[9] = system: Avena sterilis; assay: Herbicidal activity against Avena sterilis accession P17 assessed as induction of weed mortality
[10] = system: Avena sterilis; assay: Herbicidal activity against Avena sterilis accession P15 assessed as induction of weed mortality
[11] = system: Avena sterilis; assay: Herbicidal activity against Avena sterilis accession P12 assessed as weed survival at 8 times field recommended herbicide dose
[12] = system: Avena sterilis; assay: Herbicidal activity against Avena sterilis accession P01 assessed as induction of weed mortality
[13] = system: Avena sterilis; assay: Herbicidal activity against Avena sterilis accession P18 assessed as weed survival at 8 times field recommended herbicide dose
[14] = system: Avena sterilis; assay: Herbicidal activity against Avena sterilis accession P22 assessed as weed survival at 4 times field recommended herbicide dose
[15] = system: Avena sterilis; assay: Herbicidal activity against Avena sterilis accession P21S assessed as weed survival at 1/8 times field recommended herbicide dose
[16] = system: Avena sterilis; assay: Herbicidal activity against Avena sterilis accession P05 assessed as weed survival at 8 times field recommended herbicide dose
[17] = system: Avena sterilis; assay: Herbicidal activity against Avena sterilis accession P03 assessed as weed survival at 8 times field recommended herbicide dose
[18] = system: Avena sterilis; assay: Herbicidal activity against Avena sterilis accession P15 assessed as weed survival at 32 times field recommended herbicide dose
[19] = system: Avena sterilis; assay: Herbicidal activity against Avena sterilis accession P10S assessed as weed survival at 1/32 times field recommended herbicide dose
[20] = system: Avena sterilis; assay: Herbicidal activity against Avena sterilis accession P01 assessed as weed survival at 32 times field recommended herbicide dose
[21] = system: Avena sterilis; assay: Herbicidal activity against Avena sterilis accession P03 assessed as induction of weed mortality
[22] = system: Avena sterilis; assay: Herbicidal activity against Avena sterilis accession P04 assessed as weed survival at 4 times field recommended herbicide dose
[23] = system: Avena sterilis; assay: Herbicidal activity against Avena sterilis accession P06S assessed as weed survival at 1/8 times field recommended herbicide dose
[24] = system: Avena sterilis; assay: Herbicidal activity against Avena sterilis accession P10S assessed as weed survival at 1 times field recommended herbicide dose
[25] = system: Avena sterilis; assay: Herbicidal activity against Avena sterilis accession P18 assessed as weed survival at 1 times field recommended herbicide dose
[26] = system: Avena sterilis; assay: Herbicidal activity against Avena sterilis accession P15 assessed as weed survival at 4 times field recommended herbicide dose
[27] = system: Avena sterilis; assay: Herbicidal activity against Avena sterilis accession P12 assessed as induction of weed mortality
[28] = system: Avena sterilis; assay: Herbicidal activity against Avena sterilis accession P18 assessed as induction of weed mortality
[29] = system: Avena sterilis; assay: Herbicidal activity against Avena sterilis accession P11 assessed as weed survival at 16 times field recommended herbicide dose
[30] = system: Avena sterilis; assay: Herbicidal activity against Avena sterilis accession P17 assessed as weed survival at 4 times field recommended herbicide dose
[31] = system: Avena sterilis; assay: Herbicidal activity against Avena sterilis accession P09 assessed as weed survival at 1 times field recommended herbicide dose
[32] = system: Avena sterilis; assay: Herbicidal activity against Avena sterilis accession P02 assessed as weed survival at 16 times field recommended herbicide dose
[33] = system: Avena sterilis; assay: Herbicidal activity against Avena sterilis accession P17 assessed as weed survival at 8 times field recommended herbicide dose
[34] = system: Avena sterilis; assay: Herbicidal activity against Avena sterilis accession P16 assessed as weed survival at 1 times field recommended herbicide dose
[35] = system: Avena sterilis; assay: Herbicidal activity against Avena sterilis accession P10S assessed as weed survival at 1/4 times field recommended herbicide dose
[36] = system: Avena sterilis; assay: Herbicidal activity against Avena sterilis accession P05 assessed as weed survival at 4 times field recommended herbicide dose
[37] = system: Avena sterilis; assay: Herbicidal activity against Avena sterilis accession P11 assessed as weed survival at 8 times field recommended herbicide dose
[38] = system: Avena sterilis; assay: Herbicidal activity against Avena sterilis accession P15 assessed as weed survival at 1 times field recommended herbicide dose
[39] = system: Avena sterilis; assay: Herbicidal activity against Avena sterilis accession P06S assessed as weed survival at 1/16 times field recommended herbicide dose
[40] = system: Avena sterilis; assay: Herbicidal activity against Avena sterilis accession P11 assessed as weed survival at 32 times field recommended herbicide dose
[41] = system: Avena sterilis; assay: Herbicidal activity against Avena sterilis accession P21S assessed as weed survival at 1 times field recommended herbicide dose
[42] = system: Avena sterilis; assay: Herbicidal activity against Avena sterilis accession P13S assessed as weed survival at 1 times field recommended herbicide dose
[43] = system: Avena sterilis; assay: Herbicidal activity against Avena sterilis accession P02 assessed as weed survival at 4 times field recommended herbicide dose
[44] = system: Avena sterilis; assay: Herbicidal activity against Avena sterilis accession P14 assessed as weed survival at 32 times field recommended herbicide dose
[45] = system: Avena sterilis; assay: Herbicidal activity against Avena sterilis accession P13S assessed as weed survival at 1/8 times field recommended herbicide dose
[46] = system: Avena sterilis; assay: Herbicidal activity against Avena sterilis accession P07 assessed as weed survival at 4 times field recommended herbicide dose
[47] = system: Avena sterilis; assay: Herbicidal activity against Avena sterilis accession P08 assessed as weed survival at 8 times field recommended herbicide dose
[48] = system: Avena sterilis; assay: Herbicidal activity against Avena sterilis accession P05 assessed as weed survival at 1 times field recommended herbicide dose
[49] = system: Avena sterilis; assay: Herbicidal activity against Avena sterilis accession P07 assessed as weed survival at 1 times field recommended herbicide dose
[50] = system: Avena sterilis; assay: Herbicidal activity against Avena sterilis accession P22 assessed as weed survival at 1 times field recommended herbicide dose
[51] = system: Avena sterilis; assay: Herbicidal activity against Avena sterilis accession P14 assessed as weed survival at 1 times field recommended herbicide dose
[52] = system: Avena sterilis; assay: Herbicidal activity against Avena sterilis accession P08 assessed as weed survival at 32 times field recommended herbicide dose
[53] = system: Avena sterilis; assay: Herbicidal activity against Avena sterilis accession P09 assessed as induction of weed mortality
[54] = system: Avena sterilis; assay: Herbicidal activity against Avena sterilis accession P09 assessed as weed survival at 32 times field recommended herbicide dose
[55] = system: Avena sterilis; assay: Herbicidal activity against Avena sterilis accession P19S assessed as weed survival at 1/32 times field recommended herbicide dose
[56] = system: Avena sterilis; assay: Herbicidal activity against Avena sterilis accession P09 assessed as weed survival at 8 times field recommended herbicide dose
[57] = system: Avena sterilis; assay: Herbicidal activity against Avena sterilis accession P05 assessed as induction of weed mortality
[58] = system: Avena sterilis; assay: Herbicidal activity against Avena sterilis accession P11 assessed as weed survival at 1 times field recommended herbicide dose

## CCOC(=O)[C@@H](C)Oc1ccc(Oc2nc3ccc(Cl)cc3o2)cc1 [FENOXAPROP-P-ETHYL]
[1]
  GR50: 2070 gAi/ha
[2]
  Survival: 100%
[3]
  Survival: 80%
[4]
  GR50: 16 gAi/ha
[5]
  GR50: 854 gAi/ha
[6]
  Survival: 97%
[7]
  Survival: 100%
[8]
  Survival: 90%
[9]
  GR50: 303 gAi/ha
[10]
  GR50: 1440 gAi/ha
[11]
  Survival: 53%
[12]
  GR50: 600 gAi/ha
[13]
  Survival: 90%
[14]
  Survival: 40%
[15]
  Survival: 80%
[16]
  Survival: 20%
[17]
  Survival: 60%
[18]
  Survival: 23%
[19]
  Survival: 100%
[20]
  Survival: 20%
[21]
  GR50: 860 gAi/ha
[22]
  Survival: 80%
[23]
  Survival: 80%
[24]
  Survival: 0%
[25]
  Survival: 100%
[26]
  Survival: 100%
[27]
  GR50: 1290 gAi/ha
[28]
  GR50: >2640 gAi/ha
[29]
  Survival: 57%
[30]
  Survival: 40%
[31]
  Survival: 80%
[32]
  Survival: 67%
[33]
  Survival: 20%
[34]
  Survival: 93%
[35]
  Survival: 30%
[36]
  Survival: 25%
[37]
  Survival: 77%
[38]
  Survival: 100%
[39]
  Survival: 90%
[40]
  Survival: 50%
[41]
  Survival: 0%
[42]
  Survival: 0%
[43]
  Survival: 100%
[44]
  Survival: 0%
[45]
  Survival: 80%
[46]
  Survival: 77%
[47]
  Survival: 63%
[48]
  Survival: 77%
[49]
  Survival: 97%
[50]
  Survival: 87%
[51]
  Survival: 57%
[52]
  Survival: 20%
[53]
  GR50: 2121 gAi/ha
[54]
  Survival: 40%
[55]
  Survival: 93%
[56]
  Survival: 80%
[57]
  GR50: 181 gAi/ha
[58]
  Survival: 97%

## COCc1cnc(C2=NC(C)(C(C)C)C(=O)N2)c(C(=O)O)c1 (stereo unspecified) [IMAZAMOX]
[1]
  GR50: <50 gAi/ha
[2]
  Survival: 0%
[3]
  Survival: 0%
[4]
  GR50: 7 gAi/ha
[5]
  GR50: <50 gAi/ha
[6]
  Survival: 0%
[7]
  Survival: 0%
[8]
  Survival: 100%
[9]
  GR50: <50 gAi/ha
[10]
  GR50: <50 gAi/ha
[11]
  Survival: 0%
[12]
  GR50: <50 gAi/ha
[13]
  Survival: 0%
[14]
  Survival: 0%
[15]
  Survival: 87%
[16]
  Survival: 0%
[17]
  Survival: 0%
[18]
  Survival: 0%
[19]
  Survival: 100%
[20]
  Survival: 0%
[21]
  GR50: <50 gAi/ha
[22]
  Survival: 0%
[23]
  Survival: 57%
[24]
  Survival: 0%
[25]
  Survival: 0%
[26]
  Survival: 0%
[27]
  GR50: <50 gAi/ha
[28]
  GR50: <50 gAi/ha
[29]
  Survival: 0%
[30]
  Survival: 0%
[31]
  Survival: 0%
[32]
  Survival: 0%
[33]
  Survival: 0%
[34]
  Survival: 0%
[35]
  Survival: 20%
[36]
  Survival: 0%
[37]
  Survival: 0%
[38]
  Survival: 0%
[39]
  Survival: 93%
[40]
  Survival: 0%
[41]
  Survival: 0%
[42]
  Survival: 0%
[43]
  Survival: 0%
[44]
  Survival: 0%
[45]
  Survival: 50%
[46]
  Survival: 0%
[47]
  Survival: 0%
[48]
  Survival: 0%
[49]
  Survival: 0%
[50]
  Survival: 0%
[51]
  Survival: 0%
[52]
  Survival: 0%
[53]
  GR50: <50 gAi/ha
[54]
  Survival: 0%
[55]
  Survival: 100%
[56]
  Survival: 0%
[57]
  GR50: <50 gAi/ha
[58]
  Survival: 0%
